Assay results reported in ChEMBL document CHEMBL3886802, “Serine/threonine kinase inhibitors” (2016).
pIC50: −log10 of the molar value.

Target: Mitogen-activated protein kinase 1 (Homo sapiens, UniProt P28482)
Assay: Enzymatic Assay: Compounds were tested in an enzymatic assay using human ERK-2 (Mitogen Activated Kinase 1), recombinantly expressed as an n-terminal 6-His fusion protein in E. coli and corresponding to a 8-360. The substrate used was the fluorescent Omnia peptide S/T17 (Invitrogen of Carlsbad, Calif.; Cat. KNZ1171C). Test compounds were diluted in DMSO in 3-fold serial dilutions at 100× final concentrations. […] The assay was run at ambient temperature in a white 384-well polypropylene plate (Nunc, Inc of Naperville, Ill.; Cat. 267462) collecting data every 50 seconds for approximately 30 minutes on an Envision plate reader (PerkinElmer, Inc. of Waltham, Mass.); Excitation 340 nm/Emission 495 nm.

Chain of Mitogen-activated protein kinase 1 (P28482 whole entry, the tested form may be a part): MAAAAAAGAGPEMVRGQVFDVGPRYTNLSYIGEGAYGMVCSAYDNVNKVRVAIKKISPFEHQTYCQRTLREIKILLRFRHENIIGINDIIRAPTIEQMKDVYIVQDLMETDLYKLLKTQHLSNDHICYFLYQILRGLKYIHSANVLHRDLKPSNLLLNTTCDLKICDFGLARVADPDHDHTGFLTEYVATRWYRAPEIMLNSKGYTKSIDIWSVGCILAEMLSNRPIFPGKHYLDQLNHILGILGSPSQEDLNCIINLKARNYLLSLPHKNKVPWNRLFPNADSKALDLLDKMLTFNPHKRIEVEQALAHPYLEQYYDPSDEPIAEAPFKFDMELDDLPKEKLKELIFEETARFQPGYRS

pIC50: 9.13
SMILES: Cn1nccc1Nc1cc2nc(C(=O)N[C@H](CO)c3ccc(Cl)c(F)c3)ccc2cn1
